According to patent US20210267996A1, “Compounds for inhibition of inflammation” (Children`s Medical Center Corporation, priority 2018, published 2021):
Entries after “also recorded” stand apart in the source; their conditions may differ.

Experiments:
ASC specks = test: ASC speck formation in LPS-primed THP-1 cells plus nigericin; format: cell-based, human; conditions: 30 μM, 1 hr before nigericin
Protocol: (§1) Immunostaining and confocal microscopy: cells grown on coverslips were fixed for 15 min with 4% paraformaldehyde in PBS, permeabilized for 5 min in 0.1% Triton X-100 in PBS and blocked using 5% BSA for 1 hr. Then, cells were stained with the indicated primary antibodies followed by incubation with fluorescent-conjugated secondary antibodies (Jackson ImmunoResearch). Nuclei were counterstained with DAPI (4,6-diamidino-2-phenylindole) (Sigma-Aldrich). Slides were mounted using Aqua-Poly/Mount (Dako). Images were captured using a laser scanning confocal microscope (Olympus Fluoview FV1000 Confocal System) with a 63× water immersion objective and Olympus Fluoview software (Olympus). All confocal images are representative of three independent experiments.
Nigericin activates the assembly of the NLRP3 canonical inflammasome using an adaptor called apoptosis-associated speck-like protein containing a caspase recruitment domain (ASC), which can be visualized in immunofluorescent microscopy as specks. When LPS-primed THP-1 cells were treated with nigericin in the absence of inhibitors, ASC specks were detected in 30% of cells (FIG. 36). As expected, speck formation was not inhibited by z-VAD-fmk, since caspase activation occurs downstream of inflammasome assembly.
(§2) Cell death was determined by CytoTox96 assay. […] Cell death was determined by CytoTox96 assay. […] Shown are immunoblots of whole cell lysates harvested 0.5 hr later. […] Representative images of ASC specks (arrowheads) and mean±s.d. percent of cells with ASC specks analyzed 20 min later (FIG. 47). Whole cell lysates (WCL) and culture supernatants (Sup) were harvested 30 min after adding nigericin and immunoblotted with the indicated antibodies (FIG. 50). Caspase-1 activity was assayed 30 min after adding nigericin using a cell-permeable fluorescence dye FAM-YVAD-FMK (FIG. 52). […] Representative images of ASC specks (arrowheads) and mean±s.d. percent of cells with ASC specks analyzed 20 min later (FIGS. 48 and 49). Whole cell lysates (WCL) and culture supernatants (Sup), harvested 30 min after adding nigericin, were analyzed by immunoblot (FIG. 51). […] The Figures show representative confocal microscopy images and quantification of proportion of cells with GSDMD membrane staining and pyroptotic bubbles. Arrows indicate GSDMD staining of pyroptotic bubbles. […] FIGS. 57 and 58, dose response curve of the effect of Bay 11-7082 on caspase-1 (FIG. 57) and caspase-11 (FIG. 58) activity against a fluorescent peptide substrate. […] (FIG. 60). FIGS. 61 and 62 show dose response curve of the effect of Bay 11-7082 on liposome leakage induced by 0.3 μM human GSDMD-3C (FIG. 61) or mouse GSDMA3-3C (FIG. 62) plus 0.15 μM 3C protease. […] 2-fold dilutions of Bay 11-7082 from 5-40 μM were used. Graphs show the mean±s.d; data are representative of three independent experiments. *P<0.05, **P<0.01.

caspase-1 = test: Caspase-1 activity assay in cells (FAM-YVAD-FMK); format: cell-based, human; conditions: 30 μM, 30 min after nigericin
Protocol: Caspase-1 activity assay in cells: to measure caspase-1 activation, THP-1 cells were seeded into 96-well plates and differentiated with PMA. After the indicated treatments, cells were incubated with a fluorescent active caspase-1 substrate FAM-YVAD-FMK (Immunochemistry Technologies). Samples were read on a BioTek Synergy 2 plate reader.
as §2

GSDMD pore formation = test: GSDMD membrane staining and pyroptotic bubbles, immunofluorescence; format: cell-based, human; conditions: 30 μM, 30 min after nigericin
Protocol: as §1
To assess which steps in NLRP3-mediated inflammation were inhibited post ASC speck formation, LPS-primed THP-1 cells were treated with vehicle or 30 μM z-VAD-fmk, disulfiram or Bay 11-7082 1 hr before adding nigericin, and cleavage and activation of caspase-1, GSDMD, and pro-IL-1β were analysed by immunoblot of whole cell lysates 30 min later (FIG. 50). Secretion of processed IL-1β was also assessed by immunoblot of culture supernatants. […] Because immunoblots are not quantitative, caspase-1 activity 30 min after adding nigericin was also assessed using a fluorescent substrate in intact cells. […] Next, the effect of z-VAD-fmk, disulfiram and Bay 11-7082 on LPS+nigericin-induced GSDMD pore formation was assessed by immunofluorescence microscopy using a monoclonal antibody that was generated that recognizes both uncleaved GSDMD and its pore form (FIGS. 53, 54, and 64-66). […]
Cell death was determined by CytoTox96 assay. […] Cell death was determined by CytoTox96 assay. […] Representative images of ASC specks (arrowheads) and mean±s.d. percent of cells with ASC specks analyzed 20 min later (FIG. 47). […] Caspase-1 activity was assayed 30 min after adding nigericin using a cell-permeable fluorescence dye FAM-YVAD-FMK (FIG. 52). […]

mouse iBMDMs = test: Processing of caspase-1, GSDMD and IL-1β in iBMDMs (immunoblot); format: cell-based; conditions: 1 hr time point
Protocol: FIG. 97 contains a bar graph showing results of an experiment where LPS-primed THP-1 cells, after medium removal, were incubated with probe FAM-YVAD-FMK in FLICA assay buffer for another 0.5 hr before fluorescence reading. iBMDMs were pretreated with disulfiram, Bay 11-7082, necrosulfonamide (NSA) or z-VAD-fmk for 1 hr before treated or not with Nigericin for 0.5 hr. Whole cell lysates and culture supernatants were immunoblotted with the indicated antibodies.
FIG. 98 contains a bar graph showing results of an experiment where LPS-primed THP-1 cells, after medium removal, were incubated with probe FAM-YVAD-FMK in FLICA assay buffer for another 0.5 hr before fluorescence reading. iBMDMs were pretreated with disulfiram, Bay 11-7082, necrosulfonamide (NSA) or z-VAD-fmk for 1 hr before treated or not with Nigericin for 1 hr. Whole cell lysates and culture supernatants were immunoblotted with the indicated antibodies.
Canonical inflammasome assembly activates caspase-1, which cleaves pro-IL-1β and GSDMD, and the latter is needed to release processed IL-1β and to induce pyroptosis. To assess which steps in NLRP3-mediated inflammation were inhibited post ASC speck formation, LPS-primed THP-1 cells were treated with vehicle, 30 μM z-VAD-fmk or disulfiram 1 hour before adding nigericin, and cleavage and activation of caspase-1, GSDMD, and pro-IL-1β were analysed by immunoblot of whole cell lysates 30 min later and 1 hr later. Secretion of processed IL-1β was also assessed by immunoblot of culture supernatants. […] The 1 hr time point is relevant as the cell death and IL-1β release measurements used cells stimulated with nigericin for 1 and 2 hrs, respectively.

[1] = system: caspase-1, GSDMD, and pro-IL-1β; test: Caspase-1, GSDMD, pro-IL-1β cleavage and IL-1β secretion by immunoblot, THP-1; format: cell-based, human; conditions: 30 μM
Protocol: Immunoblot analysis: cell extracts were prepared using RIPA buffer (50 mM Tris-HCl pH 7.4, 150 mM NaCl, 1 mM EDTA, 1% Triton X-100, 0.1% SDS, 0.5% deoxycholate) supplemented with a complete protease inhibitor cocktail (Roche) and a PhosSTOP phosphatase inhibitor cocktail (Roche). Samples were subjected to SDS-PAGE and the resolved proteins were then transferred to a PVDF membrane (Millipore). Immunoblots were probed with indicated antibodies and visualized using a SuperSignal West Pico chemiluminescence ECL kit (Pierce).
To assess which steps in NLRP3-mediated inflammation were inhibited post ASC speck formation, LPS-primed THP-1 cells were treated with vehicle or 30 μM z-VAD-fmk, disulfiram or Bay 11-7082 1 hr before adding nigericin, and cleavage and activation of caspase-1, GSDMD, and pro-IL-1β were analysed by immunoblot of whole cell lysates 30 min later (FIG. 50). Secretion of processed IL-1β was also assessed by immunoblot of culture supernatants. […] Because immunoblots are not quantitative, caspase-1 activity 30 min after adding nigericin was also assessed using a fluorescent substrate in intact cells. […] Next, the effect of z-VAD-fmk, disulfiram and Bay 11-7082 on LPS+nigericin-induced GSDMD pore formation was assessed by immunofluorescence microscopy using a monoclonal antibody that was generated that recognizes both uncleaved GSDMD and its pore form (FIGS. 53, 54, and 64-66). In the absence of any inhibitor, the GSDMD antibody stained both the cytosol and the plasma membrane of LPS plus nigericin treated cells, which formed characteristic pyroptotic bubbles (See Reference 10). […] Thus, disulfiram and Bay 11-7082 inhibit multiple steps leading to canonical inflammasome-induced pyroptosis and inflammatory cytokine release, including priming, inflammasome assembly, inflammatory caspase activation, pro-inflammatory cytokine processing and GSDMD pore formation.
as §2
Canonical inflammasome assembly activates caspase-1, which cleaves pro-IL-1β and GSDMD, and the latter is needed to release processed IL-1β and to induce pyroptosis. […]

THP-1 cells = test: Canonical inflammasome pyroptosis, LPS-primed THP-1 cells plus nigericin; format: cell-based, human; conditions: THP-1, nigericin
Protocol: Cell viability assay. […] Primed THP-1 cells were pretreated with each test compound for 1 hr before addition of 20 μM nigericin or medium as control. The number of surviving cells was determined by CellTiter-Glo assay 1.5 hrs later. The final percent cell viability was calculated using the formula [(luminescencetest compound−luminescencencenegative control)/(luminescencencepositive control−luminescencenegative control)]×100, where wells with only LPS were used as positive controls and wells treated with LPS and nigericin were used as negative controls.
Cells were verified to be free of mycoplasma contamination.
Cytotoxicity and cell viability assays: cell death and cell viability were determined by the lactate dehydrogenase release assay using the CytoTox 96 Non-Radioactive Cytotoxicity Assay kit (Promega) and by measuring ATP levels using the CellTiter-Glo Luminescent Cell Viability Assay (Promega), respectively, according to the manufacturer's instructions. Luminescence and absorbance were measured on a BioTek Synergy 2 plate reader.
In FIGS. 4, 6, and 8, PMA-differentiated LPS-primed human THP-1 were pre-treated with indicated concentrations of each compound for 1 h before adding nigericin or medium. The number of surviving cells was determined by CellTiter-Glo assay (FIGS. 4 and 6) and IL-1β in culture supernatants was assessed by ELISA (FIG. 8) 2 hrs later. […] In FIGS. 8 and 9, 40 μM concentration of test compounds were added. […] Graphs show the mean±s.d. and data shown are representative of three independent experiments. **P<0.01.

## COC(=O)C[C@@H](C(=O)CF)N(C(=O)[C@@H](NC(=O)OCc1ccccc1)C(C)C)[C@@H](C)C(N)=O [z-VAD-fmk]
ASC specks
  ASC speck formation: not inhibited
caspase-1
  caspase-1 activity in intact cells: completely inhibited
GSDMD pore formation
  GSDMD membrane staining and pyroptotic bubbles: completely blocked
Mouse iBMDMs
  processing of caspase-1, GSDMD and IL-1β: still inhibited processing
[1]
  processed IL-1β in culture supernatants: only detected in the culture supernatants in the absence of any inhibitor; also recorded: only detected in culture supernatants in the absence of either inhibitor
[1]; 30 min after nigericin
  caspase-1, GSDMD and pro-IL-1β cleavage: dramatically reduced; also recorded: processing was reduced
[1]; 60 min after nigericin
  processing of caspase-1, GSDMD and pro-IL-1β: still showed little cleavage
THP-1 cells
  inhibition of canonical inflammasome pyroptosis: inhibits the canonical inflammasome pathway
